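48-hour exposure; five concentrations; linearly interpolated endpoints. Abbreviation: GI50, concentration required for 50% inhibition of growth. TGI: total growth inhibition.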
Tests used:
Experiment in all cases: NCI tumour cell line growth inhibition, 48 h
[1] = test system: 786-0 renal
[2] = test system: CCRF-CEM leukemia
[3] = test system: HCT-15 colon
[4] = test system: HOP-62 NSCLC
[5] = test system: M14 melanoma
[6] = test system: MALME-3M melanoma
[7] = test system: NCI-H226 lung
[8] = test system: NCI-H23 lung
[9] = test system: OVCAR-3 ovarian
[10] = test system: OVCAR-5 ovarian
[11] = test system: SK-MEL-2 melanoma
[12] = test system: U251 CNS
[13] = test system: SK-OV-3 ovarian

| Structure (SMILES) | TGI [1] [µM] | TGI [2] [µM] | TGI [3] [µM] | TGI [4] [µM] | TGI [5] [µM] | TGI [6] [µM] | TGI [7] [µM] | TGI [8] [µM] | TGI [9] [µM] | TGI [10] [µM] | TGI [11] [µM] | TGI [12] [µM] | TGI [13] [µM] | GI50 [2] [µM] |
| --- | --- | --- | --- | --- | --- | --- | --- | --- | --- | --- | --- | --- | --- | --- |
| Cc1nc2ccccc2nc1NS(=O)(=O)c1ccc(N)cc1 | > 100 | > 100 | > 100 | > 100 | > 100 | > 100 | > 100 | > 100 | > 100 | > 100 | > 100 | > 100 |  |  |
| Nc1ncc2c(n1)-c1ccccc1OC2NC1CC1 (stereo not given) | > 100 | > 100 | > 100 |  | > 100 |  | > 100 | > 100 | > 100 | > 100 | > 100 | > 100 | > 100 |  |
| CSc1nc(=S)[nH]c2n[nH]c(C)c12 | > 100 | > 100 | > 100 |  | > 100 | > 100 | > 100 | > 100 | > 100 | > 100 | > 100 | > 100 | > 100 |  |
| O=S(=O)(CC1=NC2C=CC=CC2N=C1)NCc1ccccc1 (stereo not given) | > 100 | > 100 | > 100 | > 100 | > 100 | > 100 | > 100 | > 100 | > 100 | > 100 | > 100 | > 100 | > 100 |  |
| Cc1ccc(-c2c(C#N)c(-c3ccc(N(C)C)cc3)c(C#N)c(=O)n2NS(=O)(=O)c2ccccc2)cc1 | > 100 | 96.3 | > 100 | > 100 | > 100 | > 100 | > 100 |  |  | > 100 | > 100 | > 100 | > 100 |  |
| CCCCCCCCCC(=O)OCC1(CO)C/C(=C/CC(C(C)C)C(C)C)C(=O)O1 (stereo not given) | > 100 | 73.1 | > 100 | > 100 | > 100 | 82.3 | > 100 | > 100 | > 100 | > 100 | > 100 | 89.4 | > 100 |  |
| N#Cc1c(-c2ccccc2)c(C#N)c(=O)n(NS(=O)(=O)c2ccccc2)c1O | > 100 | > 100 | > 100 | > 100 | > 100 | > 100 | > 100 |  |  | > 100 | > 100 | > 100 | > 100 |  |
| CSc1nc(C)cc(Nc2ccc(O)c(CN3CCCCC3)c2)n1 | 49.1 |  | > 100 | > 100 | 31.8 | > 100 | 84.3 | > 100 | > 100 | > 100 |  |  | > 100 |  |
| CCCOC(=O)c1cc(C(=CCC[C@H]2CC[C@@]3(C)[C@@H](CC[C@@H]4[C@@H]3CC[C@]3(C)[C@@H](C(C)CCCC(C)C)CC[C@@H]43)C2)c2cc(Cl)c(O)c(C(=O)OCCC)c2)cc(Cl)c1O (stereo not given in full) | > 50 | > 50 | > 50 | > 50 |  |  | > 50 | > 50 | > 50 |  | > 50 | > 50 |  |  |
| CC1C2CC(C(C3C(=O)C4CC3C(C)(C)C4C)C2=O)C1(C)C (stereo not given) | > 100 | > 100 |  | > 100 | > 100 | > 100 | > 100 | > 100 | > 100 | > 100 |  | > 100 | > 100 |  |
| O=c1cc(-c2ccc(O)c(O)c2)oc2cc(OC3OC(CO)C(O)C(O)C3O)cc(O)c12 (stereo not given) | > 100 |  | > 100 | > 100 | > 100 | > 100 | > 100 | > 100 | > 100 | > 100 | > 100 | > 100 | > 100 |  |
| CC1=NC(=Cc2ccc(Cl)cc2)C(=O)N1n1c(-c2ccccc2)nc2ccccc2c1=O | > 100 | > 100 | > 100 | > 100 | > 100 | > 100 | > 100 | 96 |  |  |  |  | > 100 |  |
| Cc1[nH]c2ncn(/N=C/c3ccccc3)c(=N)c2c1Cc1ccccc1 | > 100 | > 100 | > 100 | > 100 | > 100 |  | > 100 | > 100 | > 100 | > 100 | > 100 | > 100 | > 100 |  |
| COc1ccc(NC=O)c(C(O)CCNC(C)=O)c1 (stereo not given) | > 100 | > 100 | > 100 |  | > 100 |  | > 100 | > 100 | > 100 | > 100 | > 100 | > 100 | > 100 |  |
| Cc1ccc(S(=O)(=O)N/N=C2\C(=O)C3CC2C(Cl)C3Cl)cc1 (stereo not given) | > 100 | > 100 | > 100 | > 100 | > 100 | > 100 | > 100 | > 100 | > 100 | > 100 |  | > 100 | > 100 |  |
| C1CSCC2(COC2)CS1 |  | > 100 |  |  |  |  | > 100 | > 100 |  |  |  | > 100 | > 100 |  |
| CC(C)=CCC/C(C)=C/Cc1cc(/C=C/c2cc(O)c(CC=C(C)C)c(O)c2)cc(O)c1O | 17 |  | 11.9 | 24.4 | 16 | 18.6 | 23 | 11.2 | 5.83 | 15.4 | 9.4 | 5 | 21.5 |  |
| O=C(Cc1ccccc1)N/N=C(/CCN1CCCC1)CC(c1ccccc1)c1c(O)c2ccccc2oc1=O (stereo not given) | > 100 | > 100 | > 100 |  | > 100 | > 100 | > 100 | > 100 | > 100 | > 100 | > 100 | > 100 | > 100 |  |
| O=c1c2cc(I)ccc2nc(-c2cccs2)n1Nc1ccccc1 |  | > 100 | > 100 | 68.6 | > 100 |  | > 100 | 91 | 6.52 | > 100 | 1.63 | > 100 | 74.4 | 50.7 |
